What was measured:
[1] = molecular target: T1, Estrogen receptor (Homo sapiens) (UniProt P03372); assay: Displacement of [3H]estradiol from purified full length human ERalpha receptor relative to estradiol
T1 sequence (whole entry): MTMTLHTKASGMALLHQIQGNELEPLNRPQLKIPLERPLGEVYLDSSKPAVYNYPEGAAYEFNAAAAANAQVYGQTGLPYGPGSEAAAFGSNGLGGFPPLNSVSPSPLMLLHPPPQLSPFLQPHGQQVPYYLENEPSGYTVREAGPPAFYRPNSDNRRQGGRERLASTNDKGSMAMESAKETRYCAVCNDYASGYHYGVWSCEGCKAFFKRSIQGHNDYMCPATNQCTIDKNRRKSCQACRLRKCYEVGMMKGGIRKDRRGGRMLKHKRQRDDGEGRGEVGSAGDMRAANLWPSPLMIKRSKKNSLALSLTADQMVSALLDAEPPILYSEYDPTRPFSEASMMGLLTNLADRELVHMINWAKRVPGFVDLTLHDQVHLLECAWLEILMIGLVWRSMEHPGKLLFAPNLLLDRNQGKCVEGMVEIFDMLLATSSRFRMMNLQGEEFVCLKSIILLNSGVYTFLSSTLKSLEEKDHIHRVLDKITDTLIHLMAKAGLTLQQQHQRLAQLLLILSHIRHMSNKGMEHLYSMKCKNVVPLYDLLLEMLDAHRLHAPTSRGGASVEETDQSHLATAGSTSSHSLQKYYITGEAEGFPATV

[2] = molecular target: Estrogen receptor beta (Homo sapiens) (UniProt Q92731); assay: Displacement of [3H]estradiol from purified full length human ERbeta receptor relative to estradiol
Homo sapiens = species on record: Homo sapiens; assay: Selectivity ratio of human ERbeta receptor over human ERalpha receptor

Estrogen receptor beta (Homo sapiens), sequence (Q92731 whole entry): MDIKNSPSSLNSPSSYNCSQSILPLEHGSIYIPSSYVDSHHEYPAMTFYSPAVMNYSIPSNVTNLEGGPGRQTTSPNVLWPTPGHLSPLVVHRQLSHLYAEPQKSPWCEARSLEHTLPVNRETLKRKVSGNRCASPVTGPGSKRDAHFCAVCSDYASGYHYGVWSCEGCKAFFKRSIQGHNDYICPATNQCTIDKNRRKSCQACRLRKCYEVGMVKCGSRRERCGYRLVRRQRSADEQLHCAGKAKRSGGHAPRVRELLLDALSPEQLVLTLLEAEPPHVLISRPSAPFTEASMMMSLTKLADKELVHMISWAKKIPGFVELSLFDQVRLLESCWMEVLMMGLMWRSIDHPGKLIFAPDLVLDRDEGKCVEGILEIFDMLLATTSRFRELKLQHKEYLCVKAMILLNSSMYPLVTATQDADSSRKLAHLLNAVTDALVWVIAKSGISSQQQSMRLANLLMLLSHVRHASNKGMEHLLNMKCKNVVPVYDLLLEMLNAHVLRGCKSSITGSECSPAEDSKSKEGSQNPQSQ

N#Cc1c(-c2ccc(O)cc2)ccc(/C=N/O)c1O
RBA [1]: 0.004% | RBA [2]: 0.078% | Ratio (Homo sapiens): 20

Cc1c(-c2ccc(O)cc2)ccc(/C=N/O)c1O
RBA [1]: 0.249% | RBA [2]: 4.1% | Ratio (Homo sapiens): 16

COc1ccc(-c2ccc(/C=N/O)c(O)c2C)cc1
RBA [1]: 0.005% | RBA [2]: 0.007%

O/N=C/c1ccc(-c2ccc(O)cc2)cc1O
RBA [1]: 0.007% | RBA [2]: 0.553% | Ratio (Homo sapiens): 79

COc1ccc(-c2ccc(/C=N/O)c(O)c2)cc1
RBA [1]: 0.01% | RBA [2]: < 0.004%

O/N=C/c1ccc(-c2ccccc2)cc1O
RBA [1]: < 0.004% | RBA [2]: < 0.004%

From ChEMBL document CHEMBL1143167, “Monoaryl-substituted salicylaldoximes as ligands for estrogen receptor beta” (J Med Chem, 2008)
